Data on 23 molecules can be found in patent US8461178B2, “Naphthyridine derivatives and the use thereof as kinase inhibitors” (Aeterna Zentaris GmbH, priority 2009, dated 2013).

One data set concerns the target T1, Aurora-B (Homo sapiens, UniProt Q96GD4).
T1 construct: in some cases as full-length kinases, in some cases as truncated fragments; purchased Upstate/Millipore #14-835
As to the kind of experiment: Cell-free kinase assay (ALPHA technology), Aurora-B. Format: biochemical. The procedure:
The kinase reaction was stopped by adding 10 μl of the ALPHA bead mix (10 μg/ml, #6760617/PerkinElmer), pre-incubated with anti-phospho PLK antibody (100 pM, #5070, Cell Signaling), in 25 mM Tris, 200 mM NaCl, 100 mM EDTA and 0.3% BSA, and left to stand overnight. The luminiscence was detected the next morning in a Envision instrument (Perkin Elmer). […] 0% controls contained no ATP whereas the 100% controls contained no test substance. The IC50 values were determined with GraphPadPrism.

The target in a further data set is T2, Erk2 (Homo sapiens, UniProt P28482).
T2 construct: in some cases as full-length kinases, in some cases as truncated fragments
T2 sequence (P28482 whole entry, the tested form may be a part): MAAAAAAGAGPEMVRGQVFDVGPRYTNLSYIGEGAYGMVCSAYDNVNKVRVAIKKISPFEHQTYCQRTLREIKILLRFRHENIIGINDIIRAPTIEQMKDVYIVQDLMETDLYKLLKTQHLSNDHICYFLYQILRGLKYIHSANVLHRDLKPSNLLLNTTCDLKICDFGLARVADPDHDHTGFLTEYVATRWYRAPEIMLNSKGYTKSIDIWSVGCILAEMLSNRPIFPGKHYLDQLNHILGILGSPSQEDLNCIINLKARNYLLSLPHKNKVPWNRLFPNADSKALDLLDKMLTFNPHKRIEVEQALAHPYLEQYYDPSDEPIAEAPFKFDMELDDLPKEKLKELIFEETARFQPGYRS
As to the kind of experiment: Cell-free kinase assay (ALPHA technology), Erk2. The format is biochemical. To be noted: for dual activity against Aurora-B and Erk2 (or cRaf-Mek-Erk cascade respectively): in words; for IC50: at 10 μM ATP. The procedure: (§1) The controls were determined 16 fold. 0% controls contained no ATP whereas the 100% controls contained no test substance. The IC50 values were determined with GraphPadPrism.

The target in another data set is cRaf-Mek1-Erk2 (Homo sapiens, UniProt P04049+P28482+Q02750). To be noted: read-out: IC50 cRaf-Mek-Erk; at 10 μM ATP. As to the method: The inhibitory effect of the inventive compounds was tested on various human serine/threonine kinases and tyrosine kinases in enzymatic assays. Recombinant human kinases, for example Aurora-B, cRaf-Mek1-Erk2, Erk2, Pim-1, HIPK1, KDR, TrkA, Yes, c-Abl and others were used, in some cases as full-length kinases, in some cases as truncated fragments—but at least consisting of the functional kinase domains. The commercial kinase proteins (Proqinase, Millipore) were used as recombinant fusion proteins with GST (glutathione S-transferase) tag or His tag. Depending on the substrate type, the different kinase reactions were quantified by suitable ALPHA™ beads (PerkinElmer).
Chain of cRaf-Mek1-Erk2 (P04049 whole entry, the tested form may be a part): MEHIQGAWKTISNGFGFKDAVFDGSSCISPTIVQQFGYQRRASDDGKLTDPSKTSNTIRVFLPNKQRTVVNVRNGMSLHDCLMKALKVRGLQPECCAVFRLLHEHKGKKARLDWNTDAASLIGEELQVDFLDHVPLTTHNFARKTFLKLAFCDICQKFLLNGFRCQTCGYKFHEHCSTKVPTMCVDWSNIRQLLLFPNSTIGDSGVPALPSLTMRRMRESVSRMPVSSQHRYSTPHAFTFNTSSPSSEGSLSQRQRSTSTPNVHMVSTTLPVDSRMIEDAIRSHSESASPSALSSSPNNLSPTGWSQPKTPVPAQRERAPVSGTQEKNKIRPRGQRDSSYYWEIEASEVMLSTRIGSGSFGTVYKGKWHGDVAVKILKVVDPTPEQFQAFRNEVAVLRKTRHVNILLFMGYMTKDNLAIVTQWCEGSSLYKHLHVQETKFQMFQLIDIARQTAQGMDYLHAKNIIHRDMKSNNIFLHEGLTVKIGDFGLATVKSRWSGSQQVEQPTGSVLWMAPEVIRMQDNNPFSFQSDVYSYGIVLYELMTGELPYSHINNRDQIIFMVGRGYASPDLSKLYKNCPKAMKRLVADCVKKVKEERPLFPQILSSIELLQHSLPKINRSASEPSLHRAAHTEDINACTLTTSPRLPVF
Chain of cRaf-Mek1-Erk2 (Q02750 whole entry, the tested form may be a part): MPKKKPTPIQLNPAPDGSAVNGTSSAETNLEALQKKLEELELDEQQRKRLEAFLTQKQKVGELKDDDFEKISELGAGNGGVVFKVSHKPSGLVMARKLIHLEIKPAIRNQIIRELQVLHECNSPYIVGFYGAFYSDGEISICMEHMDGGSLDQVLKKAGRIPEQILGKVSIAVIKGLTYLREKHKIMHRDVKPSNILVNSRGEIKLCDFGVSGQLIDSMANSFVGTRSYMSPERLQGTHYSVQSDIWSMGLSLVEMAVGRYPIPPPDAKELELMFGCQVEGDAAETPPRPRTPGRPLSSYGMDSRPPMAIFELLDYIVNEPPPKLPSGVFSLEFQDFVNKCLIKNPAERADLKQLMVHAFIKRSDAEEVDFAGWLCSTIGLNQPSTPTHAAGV
Chain of cRaf-Mek1-Erk2 (P28482 2-360): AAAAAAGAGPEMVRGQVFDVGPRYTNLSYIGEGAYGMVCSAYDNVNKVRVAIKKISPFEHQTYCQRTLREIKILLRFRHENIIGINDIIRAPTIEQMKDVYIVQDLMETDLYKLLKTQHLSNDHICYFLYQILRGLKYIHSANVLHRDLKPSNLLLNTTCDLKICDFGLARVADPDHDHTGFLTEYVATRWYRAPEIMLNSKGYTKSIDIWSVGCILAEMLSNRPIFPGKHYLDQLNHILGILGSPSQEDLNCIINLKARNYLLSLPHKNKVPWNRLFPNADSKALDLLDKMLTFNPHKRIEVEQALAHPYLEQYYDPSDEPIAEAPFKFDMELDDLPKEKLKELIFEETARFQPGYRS
The calculation of % inhibition values per substance concentration was done by means of the following formula from the raw data determined in the Envision reader:
as §1

Where [1] appears, read: at 10 μM ATP, read-out: IC50 Aurora-B.
[2] abbreviates: read-out: IC50 values against Aurora-B.

Where two headings read alike, the source gives them in different places.

T1 sequence (Q96GD4 whole entry, the tested form may be a part): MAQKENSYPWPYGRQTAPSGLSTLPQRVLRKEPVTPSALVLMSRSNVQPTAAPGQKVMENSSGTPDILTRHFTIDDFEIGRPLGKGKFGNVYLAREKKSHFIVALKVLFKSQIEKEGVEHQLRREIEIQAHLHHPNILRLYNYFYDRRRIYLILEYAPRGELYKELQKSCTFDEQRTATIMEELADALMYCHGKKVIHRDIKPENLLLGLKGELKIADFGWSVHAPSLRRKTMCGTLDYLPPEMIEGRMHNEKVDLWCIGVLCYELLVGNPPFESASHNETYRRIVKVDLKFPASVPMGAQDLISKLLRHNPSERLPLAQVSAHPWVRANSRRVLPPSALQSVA

On to `CCNC(=O)Nc1ccc2ncc(-c3ccc(OC)cc3)cc2n1` [Compound 1, 1-Ethyl-3-[7-(4-methoxy-phenyl)-[1,5]naphthyridin-2-yl]urea], for which the melting point was 264 to 265 °C. The IC50 on Aurora-B (setting [1]) is 2230 nM. For the same molecule, the “dual activity against Aurora-B and Erk2 (or cRaf-Mek-Erk cascade respectively)” value (“dual activity against Aurora-B and Erk2” below) on Erk2 is given as “dual activity”.
The like results for `CCNC(=O)Nc1ccc2ncc(-c3ccc(OC)c(OC)c3)cc2n1` [Compound 2, 1-[7-(3,4-Dimethoxy-phenyl)-[1,5]naphthyridin-2-yl]-3-ethyl-urea] were, in that order, 218 to 219 °C, 624 nM and “dual activity”.
On to `COc1ccc(-c2cnc3ccc(NC(=O)NC(C)(C)C)nc3c2)cc1OC` [Compound 3, 1-tert-Butyl-3-[7-(3,4-dimethoxy-phenyl)-[1,5]naphthyridin-2-yl]-urea], for which the melting point fell in the range of 279 to 280 °C. Moreover, at Aurora-B (setting [1]), the IC50 is 805 nM. The half-inhibitory concentration (IC50) at cRaf-Mek1-Erk2 was 1.12 µM. For the same molecule, at Erk2, the IC50 amounted to 1.72 µM; the “dual activity against Aurora-B and Erk2” value was “dual activity”.
`COc1cc(-c2cnc3ccc(NC(=O)NC(C)(C)C)nc3c2)ccc1O` [Compound 4, 1-tert-Butyl-3-[7-(4-hydroxy-3-methoxy-phenyl)-[1,5]naphthyridin-2-yl]-urea] showed a melting point of 286 to 287 °C. Moreover, the IC50 on Aurora-B (setting [1]) was 227 nM. Also, the “dual activity against Aurora-B and Erk2” value on Erk2 is listed as “dual activity”.
For `Cn1cc(-c2cnc3ccc(NC(=O)NCCc4ccccc4)nc3c2)cn1` [Compound 5, 1-[7-(1-Methyl-1H-pyrazol-4-yl)-[1,5]naphthyridin-2-yl]-3-phenethyl-urea], the melting point lay within 237 to 238 °C. The IC50 at Aurora-B (setting [1]) came to 171 nM. On cRaf-Mek1-Erk2, the IC50 amounted to 0.008 µM. In addition, on Erk2, the IC50 is 0.733 µM; the “dual activity against Aurora-B and Erk2” value is “dual activity”.
Turning to `CCNC(=S)Nc1ccc2ncc(Nc3cc(OC)c(OC)c(OC)c3)cc2n1` [Compound 6, 1-Ethyl-3-[7-(3,4,5-trimethoxy-phenylamino)-[1,5]naphthyridin-2-yl]-thiourea], the melting point was 237 to 238 °C.
On to `CCNC(=O)Nc1ccnc2cc(-c3ccc(OC)c(OC)c3)cnc12` [Compound 7, 1-[7-(3,4-Dimethoxy-phenyl)-[1,5]naphthyridin-4-yl]-3-ethyl-urea], for which the melting point lay within 215 to 216 °C. In addition, the IC50 at Aurora-B (setting [1]) worked out at 136 nM. Further, the IC50 at cRaf-Mek1-Erk2 is ~100 µM. Further, the IC50 against Erk2 is > 100 µM.
The molecule `COc1ccc(-c2cnc3c(NC(=O)NC(C)(C)C)ccnc3c2)cc1OC` [Compound 8, 1-tert-Butyl-3-[7-(3,4-dimethoxy-phenyl)-[1,5]naphthyridin-4-yl]-urea] returned a melting point of 215 to 216 °C. Further, the IC50 at Aurora-B (setting [1]) was determined as 714 nM. Moreover, the IC50 at cRaf-Mek1-Erk2 is ~100 µM. Besides, the IC50 against Erk2 was > 100 µM.
The like results for `CCNC(=O)Nc1ccnc2cc(-c3ccc(O)c(OC)c3)cnc12` [Compound 9, 1-Ethyl-3-[7-(4-hydroxy-3-methoxy-phenyl)-[1,5]naphthyridin-4-yl]-urea] were, in that order, 202 to 203 °C, 370 nM, > 31.6 µM and ~100 µM.
In turn, `CCNC(=O)Nc1ccnc2cc(-c3cnn(C)c3)cnc12` [Compound 10, 1-Ethyl-3-[7-(1-methyl-1H-pyrazol-4-yl)-[1,5]naphthyridin-4-yl]-urea] came in with a melting point of 215 to 216 °C. Further, the IC50 at Aurora-B (setting [1]) came out at 38 nM. Also, the IC50 on Aurora-B (setting [2]) is < 100 nM. Further, the IC50 at cRaf-Mek1-Erk2 is > 31.6 µM. Further, the IC50 against Erk2 was > 100 µM.
On to `Cn1cc(-c2cnc3c(NC(=O)NC(C)(C)C)ccnc3c2)cn1` [Compound 11, 1-tert-Butyl-3-[7-(1-methyl-1H-pyrazol-4-yl)-[1,5]naphthyridin-4-yl]-urea], for which the melting point fell in the range of 215 to 216 °C. In addition, the IC50 on Aurora-B (setting [1]) was 112 nM. The IC50 at cRaf-Mek1-Erk2 is 12.6 µM. Further, the IC50 against Erk2 was > 31.6 µM.
In turn, `COc1cc(-c2cnc3c(NC(=O)NC(C)(C)C)ccnc3c2)ccc1O` [Compound 12, 1-tert-Butyl-3-[7-(4-hydroxy-3-methoxy-phenyl)-[1,5]naphthyridin-4-yl]-urea] yielded a melting point of 158 to 159 °C. Besides, at Aurora-B (setting [1]), the IC50 worked out at 1580 nM. Besides, the IC50 at cRaf-Mek1-Erk2 was > 31.6 µM. Further, the IC50 at Erk2 was > 100 µM.
As for `CC(C)(C)NC(=O)Nc1ccnc2cc(-c3cc(Cl)c(O)c(Cl)c3)cnc12` [Compound 13, 1-tert-Butyl-3-[7-(3,5-dichloro-4-hydroxy-phenyl)-[1,5]naphthyridin-4-yl]-urea], the melting point was > 300 °C. Besides, the IC50 at Aurora-B (setting [1]) came to 500 nM. In addition, the IC50 on cRaf-Mek1-Erk2 turned out to be 11 µM. Further, the IC50 on Erk2 was > 100 µM.
Turning to `COc1cc(-c2cnc3c(NC(=O)NC4CC4)ccnc3c2)ccc1O` [Compound 14, 1-Cyclopropyl-3-[7-(4-hydroxy-3-methoxy-phenyl)-[1,5]naphthyridin-4-yl]-urea], the melting point fell in the range of 235 to 236 °C. Besides, at Aurora-B (setting [1]), the IC50 turned out to be 108 nM. Further, the IC50 on cRaf-Mek1-Erk2 was 18.1 µM. In addition, the IC50 at Erk2 was > 100 µM.
On the same counts, the results for `CCNC(=O)Nc1ccnc2cc(-c3cc(Cl)c(O)c(Cl)c3)cnc12` [Compound 15, 1-[7-(3,5-Dichloro-4-hydroxy-phenyl)-[1,5]naphthyridin-4-yl]-3-ethyl-urea] are > 300 °C, 227 nM, 7.85 µM and > 31.6 µM.
On to `CCNC(=O)Nc1ccnc2cc(-c3cc(C)c(O)c(C)c3)cnc12` [Compound 16, 1-Ethyl-3-[7-(4-hydroxy-3,5-dimethyl-phenyl)-[1,5]naphthyridin-4-yl]-urea], for which the melting point was 213 to 214 °C. Also, the 50% inhibitory concentration (IC50) at Aurora-B (setting [1]) turned out to be 3850 nM. Besides, the IC50 on cRaf-Mek1-Erk2 is > 31.6 µM. Further, on Erk2, the IC50 was > 31.6 µM.
As to `Cn1cc(-c2cnc3c(NC(=O)NC4CCC4)ccnc3c2)cn1` [Compound 17, 1-Cyclobutyl-3-[7-(1-methyl-1H-pyrazol-4-yl)-[1,5]naphthyridin-4-yl]-urea], the melting point lay within 215 to 216 °C. Moreover, the IC50 on Aurora-B (setting [1]) turned out to be 48 nM. The IC50 at Aurora-B (setting [2]) is < 100 nM. On cRaf-Mek1-Erk2, the IC50 is 2.17 µM. For the same molecule, on Erk2, the IC50 is > 100 µM.
In turn, `Cn1cc(-c2cnc3c(NC(=O)NC4CC4)ccnc3c2)cn1` [Compound 18, 1-Cyclopropyl-3-[7-(1-methyl-1H-pyrazol-4-yl)-[1,5]naphthyridin-4-yl]-urea] came in with a melting point of 223 to 224 °C. On Aurora-B (setting [1]), the half-maximal inhibitory concentration (IC50) was found to be 13 nM. Besides, the IC50 on Aurora-B (setting [2]) is < 100 nM. Moreover, the IC50 on cRaf-Mek1-Erk2 was 7.45 µM. Also, the IC50 against Erk2 is > 100 µM.
`CCCNC(=O)Nc1ccnc2cc(-c3cnn(C)c3)cnc12` [Compound 19, 1-[7-(1-Methyl-1H-pyrazol-4-yl)-[1,5]naphthyridin-4-yl]-3-propyl-urea] gave a melting point of 216 to 217 °C. For the same molecule, at Aurora-B (setting [1]), the IC50 stood at 26 nM. At Aurora-B (setting [2]), the IC50 is < 100 nM. Besides, the IC50 at cRaf-Mek1-Erk2 turned out to be 9.74 µM. The half-inhibitory concentration (IC50) on Erk2 was > 100 µM.
Regarding `Cn1cc(-c2cnc3ccc(NC(=O)NC(C)(C)C)nc3c2)cn1` [Compound 26, 1-tert-Butyl-3-[7-(1-methyl-1H-pyrazol-4-yl)-[1,5]naphthyridin-2-yl]-urea], the IC50 on Aurora-B (setting [1]) worked out at 260 nM; at cRaf-Mek1-Erk2, 0.096 µM; against Erk2, 0.429 µM. Moreover, the “dual activity against Aurora-B and Erk2” value on Erk2 was “dual activity”.
On to `Cn1cc(-c2cnc3ccc(NC(=O)Nc4ccccc4)nc3c2)cn1` [Compound 27, 1-[7-(1-Methyl-1H-pyrazol-4-yl)-[1,5]naphthyridin-2-yl]-3-phenyl-urea], for which the values for the IC50 at Aurora-B (setting [1]), at cRaf-Mek1-Erk2 and against Erk2 were 1140 nM, 0.157 µM and 0.191 µM, respectively. The “dual activity against Aurora-B and Erk2” value at Erk2 is recorded as “dual activity”.
The molecule `Cn1cc(-c2cnc3ccc(NC(=O)NCc4ccccc4)nc3c2)cn1` [Compound 28, 1-Benzyl-3-[7-(1-methyl-1H-pyrazol-4-yl)-[1,5]naphthyridin-2-yl]-urea] yielded a melting point of 257 to 258 °C. At Aurora-B (setting [1]), the IC50 is 579 nM. Further, at Erk2, the “dual activity against Aurora-B and Erk2” value is given as “dual activity”.
Take `CC(C)NC(=O)Nc1ccnc2cc(-c3cnn(C)c3)cnc12` [Compound 30, 1-Isopropyl-3-[7-(1-methyl-1H-pyrazol-4-yl)-[1,5]naphthyridin-4-yl]-urea]: the IC50 was 137 nM at Aurora-B (setting [1]), 2.17 µM at cRaf-Mek1-Erk2 and > 100 µM against Erk2.
